According to PMC6763016 (PLoS ONE, 2019):

Target: T1, 5-HT1A autoreceptor (5-HT1AAR) of Tph2-/- mouse dorsal raphe serotonergic neurons (Mus musculus, UniProt Q64264)
T1 construct: gene Htr1a
T1 sequence (Q64264 1-421): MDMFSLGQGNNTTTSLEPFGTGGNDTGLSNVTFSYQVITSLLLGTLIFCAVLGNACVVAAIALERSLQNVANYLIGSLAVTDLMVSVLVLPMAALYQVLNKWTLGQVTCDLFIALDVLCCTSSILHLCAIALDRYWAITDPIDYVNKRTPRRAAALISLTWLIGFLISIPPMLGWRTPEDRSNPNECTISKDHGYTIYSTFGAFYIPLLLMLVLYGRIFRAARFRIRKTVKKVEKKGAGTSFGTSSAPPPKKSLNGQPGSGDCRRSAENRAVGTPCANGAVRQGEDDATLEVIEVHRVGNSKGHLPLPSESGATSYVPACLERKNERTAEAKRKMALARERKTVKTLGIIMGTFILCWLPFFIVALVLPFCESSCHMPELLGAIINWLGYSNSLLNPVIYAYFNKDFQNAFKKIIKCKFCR
Settings: agonist; 10 μM phenylephrine and synaptic blockers present; 34-36 °C; four of nine neurons (those silenced by 1 μM)

With `O=c1n(CCCN2CCN(c3cccc(Cl)c3)CC2)nc2ccccn12` [Trazodone] the “% decrease of firing at 1 μM” value was 96.1 ± 7.3%.
